Data taken from article doi:10.1101/2025.09.11.675743v1 (biorxiv, 2025).

What follows are compounds tested against T1, recombinant human TREM2 protein (Homo sapiens, UniProt Q9NZC2) (assay: microscale thermophoresis).
T1 sequence (Q9NZC2 19-174 limits assumed): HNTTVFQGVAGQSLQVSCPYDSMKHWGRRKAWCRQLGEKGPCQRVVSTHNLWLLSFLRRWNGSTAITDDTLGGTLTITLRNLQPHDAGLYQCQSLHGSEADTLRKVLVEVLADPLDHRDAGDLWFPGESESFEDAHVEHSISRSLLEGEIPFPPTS
Assay type: binding
Work on `c1ccc(CCNc2nc(-c3c[nH]c4ccccc34)cs2)cc1` [T2M-010] yielded a Kd of 830 ± 100 nM. With `c1ccc(Nc2nc(-c3c[nH]c4ccccc34)cs2)cc1` [T2M-002] the Kd was 50800 ± 3740 nM. `c1ccc2c(-c3csc(NC4CC4)n3)c[nH]c2c1` [T2M-003] was tested, and the Kd was 1350 ± 160 nM. `CNc1nc(-c2c[nH]c3ccccc23)cs1` [T2M-016] gave a Kd of 2440 ± 300 nM. For `c1ccc(Nc2nc(-c3c[nH]c4ccccc34)cs2)nc1` [T2K-014], the Kd was 28900 ± 1740 nM.

These compounds were tested against hERG (Homo sapiens, UniProt Q12809) (assay: hERG safety counterscreen).
Sequence of hERG (Q12809 whole entry): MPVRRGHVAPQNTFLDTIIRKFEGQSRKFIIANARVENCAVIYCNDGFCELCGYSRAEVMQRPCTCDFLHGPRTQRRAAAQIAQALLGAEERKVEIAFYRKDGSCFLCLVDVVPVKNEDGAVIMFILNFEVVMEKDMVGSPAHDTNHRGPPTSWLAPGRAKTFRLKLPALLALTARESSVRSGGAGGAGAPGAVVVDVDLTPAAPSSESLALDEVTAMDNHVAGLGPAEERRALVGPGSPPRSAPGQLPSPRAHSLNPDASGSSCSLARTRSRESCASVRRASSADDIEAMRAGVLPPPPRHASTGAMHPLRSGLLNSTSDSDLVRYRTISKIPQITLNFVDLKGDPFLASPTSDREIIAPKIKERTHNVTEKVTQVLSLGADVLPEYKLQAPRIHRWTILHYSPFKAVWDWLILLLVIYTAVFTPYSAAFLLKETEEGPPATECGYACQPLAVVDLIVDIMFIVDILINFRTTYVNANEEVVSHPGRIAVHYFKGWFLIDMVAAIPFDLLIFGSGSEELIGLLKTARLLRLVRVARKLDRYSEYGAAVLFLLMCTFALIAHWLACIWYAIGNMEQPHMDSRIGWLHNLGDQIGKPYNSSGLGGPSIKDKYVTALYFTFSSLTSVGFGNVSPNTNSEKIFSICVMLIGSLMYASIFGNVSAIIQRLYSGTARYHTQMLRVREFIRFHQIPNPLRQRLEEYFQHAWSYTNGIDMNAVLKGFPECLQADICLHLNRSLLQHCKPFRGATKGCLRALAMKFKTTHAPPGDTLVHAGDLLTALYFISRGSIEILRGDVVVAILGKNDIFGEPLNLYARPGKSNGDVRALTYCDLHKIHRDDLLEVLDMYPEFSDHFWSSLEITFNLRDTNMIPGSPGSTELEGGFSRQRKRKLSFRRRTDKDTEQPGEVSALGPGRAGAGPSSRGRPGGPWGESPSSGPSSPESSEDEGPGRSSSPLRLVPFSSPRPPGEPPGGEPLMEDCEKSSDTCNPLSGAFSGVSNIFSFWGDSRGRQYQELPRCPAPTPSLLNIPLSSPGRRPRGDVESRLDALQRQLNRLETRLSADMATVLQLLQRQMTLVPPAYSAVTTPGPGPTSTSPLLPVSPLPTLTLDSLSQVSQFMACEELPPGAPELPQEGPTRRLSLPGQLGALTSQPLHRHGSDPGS
Assay type: cell-based
Compound `c1ccc(CCNc2nc(-c3c[nH]c4ccccc34)cs2)cc1` [T2M-010] has an IC50 of over 60000 nM.
